Key:
Format in all cases: physicochemical
[1] = Test of storage stability in solution; conditions: 13 mg in 1 mL TFP, brown bottle, 25° C., 3 days; 1250-fold diluted for measurement
Experimental: Each of 13 mg of Complex Compounds (2) to (5), (7), (9) to (11), (13) to (21), (24), (26), (28), (30), (31), and (33) was dissolved in 1 mL of TFP, which was filtered with a filter made of TEFLON (registered trademark) (manufactured by Whatman, having a pore diameter of 0.20 μm), and solutions of Complex Compounds (2) to (5), (7), (9) to (11), (13) to (21), (24), (26), (28), (30), (31), and (33) were respectively obtained. Each of the obtained solutions was transferred to a brown bottle with a lid and stored at 25° C. for 3 days. Before and after the storage stability test, using a spectrophotometer, 1250-fold diluted solutions of Complex Compounds (2) to (5), (7), (9) to (11), (13) to (21), (24), (26), (28), (30), (31), and (33), respectively, were measured for their ultraviolet-visible absorption spectra. […] Here, the absorption maximum wavelength after the storage stability test is the absorption maximum wavelength in the absorption spectrum after the storage stability test.

[2] = Moisture- and heat-resistances test of thin films; conditions: thin film, 80° C., relative humidity 80%, 100 hours
Experimental: Similarly to the film-forming test, thin films of Complex Compounds (2) to (5), (7), (9) to (11), (13) to (21), (24), (26), (28), (30), (31), and (33) were respectively obtained. Using a constant temperature and humidity chamber, KHWII-40HP, manufactured by Satake Chemical Equipment Mfg Ltd., the thin films were exposed in the atmosphere having a temperature of 80° C. and a relative humidity of 80% for 100 hours. Ultraviolet-visible absorption spectra of the thin films before and after the moisture- and heat-resistances test were measured using a spectrophotometer. […] Here, the absorption maximum wavelength after the moisture- and heat-resistances test denotes the absorption maximum wavelength in an absorption spectrum after the moisture- and heat-resistances test.

[3] = Lightfastness test of thin films; conditions: thin film on glass plate, UV fluorescent lamps 15 W/m^2, 45° C., 10 hours
Source text: Thin films of Complex Compounds (2) to (5), (7), (9) to (11), (13) to (21), (24), (26), (28), (30), (31), and (33) were respectively obtained similarly to the film-forming test except that a glass plate (manufactured by Taiyu Kizai Co., Ltd.; 2 cm×2 cm; thickness: 2 mm) was used as the substrates instead of the plate made of polycarbonate resin. Using a dewpanel light control weather meter DPWL-5R, manufactured by Suga Test Instruments Co., Ltd., which was equipped with ultraviolet fluorescent lamps (SUGA-FS40, manufactured by Suga Test Instruments Co., Ltd., having a peak wavelength of 313 nm and an illuminance distribution of 282 nm to 373 nm), light was irradiated on the thin films with an amount of light of 15 W/m^2 at 45° C. for 10 hours. Ultraviolet-visible absorption spectra of the thin film before and after the lightfastness test were measured using a spectrophotometer.
Here, the absorption maximum wavelength after lightfastness test denotes an absorption maximum wavelength in the absorption spectrum after the lightfastness test.

Compound | I^c/I^c0 (absorbance ratio at absorption maximum after/before storage stability test) [1] | Δλmax(c) (change in absorption maximum wavelength) [1] | I^b/I^b0 (absorbance ratio at absorption maximum after/before moisture- and heat-resistances test) [2] | Δλmax(b) (change in absorption maximum wavelength) [2] | I^a/I^a0 (absorbance ratio at absorption maximum after/before lightfastness test) [3]
Cc1c(/C=N/[N-]c2nnnn2-c2ccccc2)c([O-])n(Cc2ccccc2)c(=O)c1C#N.Cc1c(/C=N/[N-]c2nnnn2-c2ccccc2)c([O-])n(Cc2ccccc2)c(=O)c1C#N.Cc1c(/C=N/[N-]c2nnnn2-c2ccccc2)c([O-])n(Cc2ccccc2)c(=O)c1C#N.Cc1c(/C=N/[N-]c2nnnn2-c2ccccc2)c([O-])n(Cc2ccccc2)c(=O)c1C#N.[Co+3].[Co+3].c1ccc(CC[N+]23CC[N+](CCc4ccccc4)(CC2)CC3)cc1 [Complex Compound (31)] | 1.02 | 0 nm | 1.00 | 0 nm | 0.85
Cc1c(/C=N/[N-]c2nnnn2-c2ccccc2)c([O-])n(CC(C)C)c(=O)c1C#N.Cc1c(/C=N/[N-]c2nnnn2-c2ccccc2)c([O-])n(CC(C)C)c(=O)c1C#N.Cc1c(/C=N/[N-]c2nnnn2-c2ccccc2)c([O-])n(CC(C)C)c(=O)c1C#N.Cc1c(/C=N/[N-]c2nnnn2-c2ccccc2)c([O-])n(CC(C)C)c(=O)c1C#N.[Co+3].[Co+3].c1cc[n+]2c(c1)-c1cccc[n+]1CCC2 [Complex Compound (14)] | 1.01 | 0 nm | 1.00 | 0 nm | 0.92
COc1ccc2cc3[n+](cc2c1OC)CCc1cc2c(cc1-3)OCO2.Cc1c(/C=N/[N-]c2nnnn2-c2ccccc2)c([O-])n(CC(C)C)c(=O)c1C#N.Cc1c(/C=N/[N-]c2nnnn2-c2ccccc2)c([O-])n(CC(C)C)c(=O)c1C#N.[Co+3] [Complex Compound (18)] | 1.00 | 0 nm | 1.00 | 0 nm | 0.90
Cc1c(/C=N/[N-]c2nnnn2-c2ccccc2)c([O-])n(Cc2ccccc2)c(=O)c1C#N.Cc1c(/C=N/[N-]c2nnnn2-c2ccccc2)c([O-])n(Cc2ccccc2)c(=O)c1C#N.Cc1c(/C=N/[N-]c2nnnn2-c2ccccc2)c([O-])n(Cc2ccccc2)c(=O)c1C#N.Cc1c(/C=N/[N-]c2nnnn2-c2ccccc2)c([O-])n(Cc2ccccc2)c(=O)c1C#N.[Co+3].[Co+3].c1cc[n+]2c(c1)-c1cccc[n+]1CCC2 [Complex Compound (30)] | 0.99 | 0 nm | 0.99 | 0 nm | 0.89
CCn1c([O-])c(/C=N/[N-]C(=O)c2ccc(C(F)(F)F)cc2)c(C)c(C#N)c1=O.CCn1c([O-])c(/C=N/[N-]C(=O)c2ccc(C(F)(F)F)cc2)c(C)c(C#N)c1=O.CCn1c([O-])c(/C=N/[N-]C(=O)c2ccc(C(F)(F)F)cc2)c(C)c(C#N)c1=O.CCn1c([O-])c(/C=N/[N-]C(=O)c2ccc(C(F)(F)F)cc2)c(C)c(C#N)c1=O.Oc1ccc(-c2ccccc2)cc1-[n+]1ccc(-c2cc[n+](-c3cc(-c4ccccc4)ccc3O)cc2)cc1.[Co+3].[Co+3] [Complex Compound (9)] | 1.00 | 0 nm | 1.00 | 0 nm | 0.97
CCn1c([O-])c(/C=N/[N-]c2ncccn2)c(C)c(C#N)c1=O.CCn1c([O-])c(/C=N/[N-]c2ncccn2)c(C)c(C#N)c1=O.CCn1c([O-])c(/C=N/[N-]c2ncccn2)c(C)c(C#N)c1=O.CCn1c([O-])c(/C=N/[N-]c2ncccn2)c(C)c(C#N)c1=O.Oc1ccc(-c2ccccc2)cc1-[n+]1ccc(-c2cc[n+](-c3cc(-c4ccccc4)ccc3O)cc2)cc1.[Co+3].[Co+3] [Complex Compound (7)] | 1.00 | 0 nm | 1.00 | 0 nm | 0.99
Cc1c(/C=N/[N-]c2nnnn2-c2ccccc2)c([O-])n(CC(C)C)c(=O)c1C#N.Cc1c(/C=N/[N-]c2nnnn2-c2ccccc2)c([O-])n(CC(C)C)c(=O)c1C#N.Cc1c(/C=N/[N-]c2nnnn2-c2ccccc2)c([O-])n(CC(C)C)c(=O)c1C#N.Cc1c(/C=N/[N-]c2nnnn2-c2ccccc2)c([O-])n(CC(C)C)c(=O)c1C#N.[Co+3].[Co+3].c1ccc2c[n+](CCCCCCCCCC[n+]3ccc4ccccc4c3)ccc2c1 [Complex Compound (16)] | 1.01 | 0 nm | 1.00 | 0 nm | 0.90
Cc1c(/C=N/[N-]c2nnnn2-c2ccccc2)c([O-])n(CC(C)C)c(=O)c1C#N.Cc1c(/C=N/[N-]c2nnnn2-c2ccccc2)c([O-])n(CC(C)C)c(=O)c1C#N.Cc1c(/C=N/[N-]c2nnnn2-c2ccccc2)c([O-])n(CC(C)C)c(=O)c1C#N.Cc1c(/C=N/[N-]c2nnnn2-c2ccccc2)c([O-])n(CC(C)C)c(=O)c1C#N.[Co+3].[Co+3].c1ccc2c(c1)ccc[n+]2CCCC[n+]1cccc2ccccc21 [Complex Compound (21)] | 1.01 | 0.5 nm | 1.00 | 0.5 nm | 0.87
CCCCn1c([O-])c(/C=N/[N-]c2nnnn2-c2ccccc2)c(CCC)c(C#N)c1=O.CCCCn1c([O-])c(/C=N/[N-]c2nnnn2-c2ccccc2)c(CCC)c(C#N)c1=O.CCCCn1c([O-])c(/C=N/[N-]c2nnnn2-c2ccccc2)c(CCC)c(C#N)c1=O.CCCCn1c([O-])c(/C=N/[N-]c2nnnn2-c2ccccc2)c(CCC)c(C#N)c1=O.[Co+3].[Co+3].c1cc2ccc3ccc[n+]4c3c2[n+](c1)CCC4 [Complex Compound (28)] | 0.99 | 0 nm | 0.99 | 0 nm | 0.88
Cc1c(/C=N/[N-]c2nnnn2-c2ccccc2)c([O-])n(CC(C)C)c(=O)c1C#N.Cc1c(/C=N/[N-]c2nnnn2-c2ccccc2)c([O-])n(CC(C)C)c(=O)c1C#N.Cc1c(/C=N/[N-]c2nnnn2-c2ccccc2)c([O-])n(CC(C)C)c(=O)c1C#N.Cc1c(/C=N/[N-]c2nnnn2-c2ccccc2)c([O-])n(CC(C)C)c(=O)c1C#N.[Co+3].[Co+3].c1ccc2c[n+](CCCCCC[n+]3ccc4ccccc4c3)ccc2c1 [Complex Compound (17)] | 0.98 | 0 nm | 0.98 | 0 nm | 0.88
